These results are taken from patent US7504416B2, “4-substituted quinolines as antitumor agents” (AstraZeneca AB, priority 2000, dated 2009).

The subject of the assay is HT29 human colon tumour cells. Description: Cell proliferation assay. It is filed as cell-based. The note with it: HT-29, 72 hours incubation. Here is the method: Cell Proliferation Assays
Cells were seeded into multi-well plates at 20 000-40 000 cells/ml in growth medium containing 5% FCS and incubated overnight at 37° C. The compounds were prepared in fresh medium at an appropriate concentration and added to the wells containing the cells. These were then incubated for a further 72 hours. Cells were then either removed from the wells by incubating with trypsin/EDTA and counted using a Coulter counter, or treated with XTT/PMS in PBSA and optical densities read at 450 nm. […] For example, Compound No 3 gave an IC50 of 1.0 μM in HT29 human colon tumour cells.

pIC50: −log10 of the molar value.

`COc1cc2ncc(C#N)c(Nc3ccc(Oc4ccccc4OCC(=O)NCC(=O)N4CCN(C)CC4)cc3)c2cc1OC` [Compound 3] showed a pIC50 of 6.00.
